Laboratory results as given in US7084239B1, “Cancer peptides of NY-ESO-1/CAG-3” (The United States of America as represented by the …, priority 1997, dated 2006).
Entries after “also recorded” stand apart in the source; their conditions may differ.

Legend:
Format in all cases: cell-based, human
CTL clone 5 [1] = experiment: GM-CSF release by CTL clone 5 on peptide-pulsed EBV B cells
Description: DNA transfection and GM-CSF assay were done as previously described (Wang, R. F., P. F. Robbins, Y. Kawakami, X. Q. Kang, and S. A. Rosenberg, 1995, J. Exp. Med. 181:799–804). Briefly, […] of DNA carrying a different fragment and 50 ng of the HLA-A31 DNA were mixed with 2 μl of lipofectamine in 100 μl of serum-free DMEM for 15–45 min. The DNA/lipofectamine mixture was then added to the COS-7 (5×10^4) cells and incubated overnight. The following day, cells were washed twice with DMEM medium. TIL586, CTL clone 5 or CTL clone 10 were added at a concentration of 5×10^4 cells/well in AIM-V medium containing 120 IU/ml of IL-2. After 18–24 h incubation, 100 μl of supernatant was collected and GM-CSF was measured in a standard ELISA assay (R+D Systems, Minneapolis, Minn.). For peptides, 586EBV, 1510EBV and T2 cells were incubated with peptides at 37° C. for 90 min, and then washed three times with AIM-V medium containing 120 IU/ml of IL-2. T cells were added and incubated for additional 18–24 h, 100 μl of supernatant was collected for GM-CSF assay. In some experiments, IFN-γ release assays were done using a standard ELISA kit (Endogen, Woburn, Mass.).
These peptides were pulsed onto HLA-A31-positive 1510EBV B cells and tested for their ability to stimulate cytokine release by CTL clone 5. […] CTL clone 10 recognized the same peptide as CTL clone 5 (data not shown). […] The reactivity of CTL clone 5 was undetectable when either the ESO9-54 or the ESO10-127 peptides were used at concentrations below 100 nM to sensitize EBV cells.

CTL clone 5 [2] = experiment: Chromium release cytolysis of peptide-pulsed target cells by CTL clone 5
Description: FIGS. 5A–5C. Characterization of the 9-mer ESO9-54 and 10-mer ESO10-53 derived from the normal open reading frame. FIG. 5A. 586EBV or 1510EBV B cells were pulsed with ESO10-53 and ESO9-54 peptides at different concentrations for 120 min. After two washes with AIM-V medium with 120 IU IL-2, CTL clone 5 (1×10^5/well) was added and incubated for 18 to 24 h. GM-CSF release by CTL clone 5 was determined by ELISA. FIG. 5B. 586mel cells were lysed by CTL clone 5, but 397mel cells were not lysed by CTL clone 5 at different E:T ratios. FIG. 5C. 586EBV and 1510EBV B cells were labeled with chromium overnight. The ESO10-53 peptide was then pulsed on the chromium-labeled 586EBV, 1510EBV, and T2 cells for 120 min. An irrelevant peptide containing an HLA-A31 peptide-binding motif was also pulsed on chromium-labeled 586EBV, 1510EBV B cells as negative controls. After peptide incubation and two washes, cytolysis of target cells by CTL clone 5 was determined in a 4-h chromium release assay. T2 pulsed with the ESO10-53 peptide was used for the specificity control.
Cytolytic assay was done as previously described (Kawakami, Y et al., 1994, Proc. Natl. Acad. Sci. USA 91:6458–62). Briefly, the target cells were labeled with chromium for 90 min. After washing three times, the cells were incubated with peptides at a concentration of 1 μg/ml for 90 min. The cells were washed again, counted, and then mixed with TIL586 or CTL clone 5 at the indicated ratio of effector: targets (E:T). Chromium release was measured after 4 h incubation. The peptides were synthesized by a solid-phase method using a peptide synthesizer (Model AMS 422, Gilson Co., Inc., Worthington, Ohio). Some peptides were purified by HPLC and had greater than 98% in purity. […] Percentage of specific lysis was determined from the equation (A−B)/(C−B)×100 where A is lysis of 586EBV B cells by TIL586 or clone 5 in the presence of a peptide, B is spontaneous release from 586EBV B cells in presence of the same peptide but in the absence of effector cells, and C is the maximum chromium release. […]

CTL clone 14 = experiment: T cell recognition of peptide-pulsed EBV B cells by CTL clone 14; conditions: peptide pulsed onto EBV B cells
Text: FIGS. 6A–6H. CTL clones 2 and 14 recognize the NY-ESO-1 gene, but not the ESO10-53 peptide derived from the NY-ESO-1 protein. CTL clones 2, 14 and 5 recognized NY-ESO-1 when cotransfected with HLA-A31 cDNA into COS-7 (FIG. 6A, C, E and G). TIL1244, which recognized TRP-2 But not NY-ESO-1, was used as a specificity control. FIGS. 6B, D, F and H. CTL clones 2, 5, 14, and TIL1244 recognized 586mel. […] TIL1244 recognized the TRP197-205 peptide derived from TRP-2, 586EBV B cells alone or pulsed with the ORF3P peptide from an alternative reading frame of TRP1 were negative controls. 397mel is an HLA-A31-negative, NY-ESO-1-positive tumor line.
DNA transfection and GM-CSF assay were done as previously described (Wang, R. F., P. F. Robbins, Y. Kawakami, X. Q. Kang, and S. A. Rosenberg, 1995, J. Exp. Med. 181:799–804). Briefly, […] of DNA carrying a different fragment and 50 ng of the HLA-A31 DNA were mixed with 2 μl of lipofectamine in 100 μl of serum-free DMEM for 15–45 min. The DNA/lipofectamine mixture was then added to the COS-7 (5×10^4) cells and incubated overnight. The following day, cells were washed twice with DMEM medium. […] After 18–24 h incubation, 100 μl of supernatant was collected and GM-CSF was measured in a standard ELISA assay (R+D Systems, Minneapolis, Minn.). […]

For “ASGPGGGAPR (listed as Homo sapiens) [ESO10-53]”, the “GM-CSF release by CTL clone 5, EXPT. 2 (586EBV)” value (CTL clone 5 [1]; 586EBV cells, peptide 0.1 μg/ml for 90 min, 5 × 10^4 CTL clone 5) was 1044 (SEQ. ID NO: 25), the “CTL clone 5 GM-CSF release” value (CTL clone 5 [1]; 1510EBV cells incubated with peptide at 0.1 μg/ml for 90 min) was >2000 (SEQ. ID NO: 25) pg/ml and the “GM-CSF release by CTL clone 5, EXPT. 1 (1510EBV)” value (CTL clone 5 [1]; 1510EBV cells, peptide 0.1 μg/ml for 90 min, 5 × 10^4 CTL clone 5) was 1097. The “Plateau of GM-CSF release from CTL clone 5 in peptide titration” value (CTL clone 5 [1]; at 10 μM peptide concentration (FIG. 5A)) was “no plateau was reached”, the “Recognition by CTL clone 5 (cytokine release), in words” value (CTL clone 5 [1]; peptide pulsed onto HLA-A31-positive 1510EBV or 586EBV B cells) was “strongly recognized; also recorded: recognized” and the “Peptide concentration at which CTL clone 5 reactivity is detectable” value (CTL clone 5 [1]; peptide titration on EBV B cells, GM-CSF release) was ≤ 10 nM. The “Lysis of peptide-incubated 586EBV or 1510EBV by CTL clone 5” value (CTL clone 5 [2]; E:T ratio of 2.5:1, 4-h chromium release) was 5–10%, the “Lysis of peptide-incubated 586EBV or 1510EBV by CTL clone 5” value (CTL clone 5 [2]; E:T ratio of 40:1, 4-h chromium release) was > 60% and the “Lysis of HLA-A31-negative T2 cells pulsed with peptide by CTL clone 5” value (CTL clone 5 [2]; T2 cells, specificity control (FIG. 5C)) was “nor did it lyse”. The “Recognition by CTL clone 14, in words” value (CTL clone 14) was “did not recognize” and the “Recognition by CTL clone 14, in words” value (CTL clone 14; listed as ESO 10-53) was “failed to recognize”.
